Source: ChEMBL document CHEMBL3734723, “Synthesis and anticancer activity of 6-heteroarylcoumarins” (2015)

Key:
Assay type in all cases: functional
NCI-H23 = experiment: Growth inhibition of human NCI-H23 cells incubated for 48 hrs by sulforhodamine B assay; conditions: NCI-H23, 48 h; for CC50: read-out: LC50 (the source's name)
[1] = Growth inhibition of human BT549 cells incubated for 48 hrs by sulforhodamine B assay; conditions: BT-549, 48 h; for CC50: read-out: LC50 (the source's name)
[2] = Cytotoxicity against human TK10 cells assessed as cell growth at 10 uM incubated for 48 hrs by sulforhodamine B assay; conditions: TK-10, 48 h, read-out: Activity
[3] = Growth inhibition of human SF268 cells incubated for 48 hrs by sulforhodamine B assay; conditions: SF-268, 48 h; for CC50: read-out: LC50 (the source's name)
[4] = Growth inhibition of human RXF393 cells incubated for 48 hrs by sulforhodamine B assay; conditions: RXF 393, 48 h; for CC50: read-out: LC50 (the source's name)
[5] = Growth inhibition of human HCT116 cells incubated for 48 hrs by sulforhodamine B assay; conditions: HCT-116, 48 h; for CC50: read-out: LC50 (the source's name)
MDA-MB-231 = experiment: Cytotoxicity against human MDA-MB-231 cells assessed as cell growth at 10 uM incubated for 48 hrs by sulforhodamine B assay; conditions: MDA-MB-231, 48 h, read-out: Activity
[6] = Cytotoxicity against human LOXIMVI cells assessed as cell growth at 10 uM incubated for 48 hrs by sulforhodamine B assay; conditions: LOX IMVI, read-out: Activity
[7] = Growth inhibition of human SF539 cells incubated for 48 hrs by sulforhodamine B assay; conditions: SF-539, 48 h; for CC50: read-out: LC50 (the source's name)
A549 = experiment: Cytotoxicity against human A549 cells assessed as cell growth at 10 uM incubated for 48 hrs by sulforhodamine B assay; conditions: A549, 48 h, read-out: Activity
[8] = Growth inhibition of human melanoma cells after 48 hrs by sulforhodamine B assay; conditions: Melanoma cell; for CC50: read-out: LC50 (the source's name)
MDA-MB-435 = experiment: Cytotoxicity against human MDA-MB-435 cells assessed as cell growth at 10 uM incubated for 48 hrs by sulforhodamine B assay; conditions: MDA-MB-435, 48 h, read-out: Activity
Malme-3M = experiment: Cytotoxicity against human MALME-3M cells assessed as cell growth at 10 uM incubated for 48 hrs by sulforhodamine B assay; conditions: read-out: Activity
[9] = Cytotoxicity against human […] cells assessed as cell growth at 10 uM incubated for 48 hrs by sulforhodamine B assay; conditions: read-out: Activity
[10] = Cytotoxicity against human UACC62 cells assessed as cell growth at 10 uM incubated for 48 hrs by sulforhodamine B assay; conditions: UACC-62, 48 h, read-out: Activity
[11] = Cytotoxicity against human HCT15 cells assessed as cell growth at 10 uM incubated for 48 hrs by sulforhodamine B assay; conditions: HCT-15, 48 h, read-out: Activity
[12] = Growth inhibition of human SW620 cells incubated for 48 hrs by sulforhodamine B assay; conditions: SW-620, 48 h; for CC50: read-out: LC50 (the source's name)
[13] = Cytotoxicity against human SF268 cells assessed as cell growth at 10 uM incubated for 48 hrs by sulforhodamine B assay; conditions: SF-268, 48 h, read-out: Activity
[14] = Cytotoxicity against human SNB75 cells assessed as cell growth at 10 uM incubated for 48 hrs by sulforhodamine B assay; conditions: SNB-75, 48 h, read-out: Activity
A498 = experiment: Growth inhibition of human A498 cells incubated for 48 hrs by sulforhodamine B assay; conditions: A498, 48 h; for CC50: read-out: LC50 (the source's name)
NCI-H522 = experiment: Growth inhibition of human NCI-H522 cells incubated for 48 hrs by sulforhodamine B assay; conditions: NCI-H522, 48 h; for CC50: read-out: LC50 (the source's name)
T47D = experiment: Growth inhibition of human T47D cells incubated for 48 hrs by sulforhodamine B assay; conditions: for CC50: read-out: LC50 (the source's name)
ACHN = experiment: Growth inhibition of human ACHN cells incubated for 48 hrs by sulforhodamine B assay; conditions: for CC50: read-out: LC50 (the source's name)
MDA-MB-468 = experiment: Cytotoxicity against human MDA-MB-468 cells assessed as cell growth at 10 uM incubated for 48 hrs by sulforhodamine B assay; conditions: MDA-MB-468, 48 h, read-out: Activity
[15] = Growth inhibition of human HOP62 cells incubated for 48 hrs by sulforhodamine B assay; conditions: HOP-62, 48 h; for CC50: read-out: LC50 (the source's name)
[16] = Growth inhibition of human PC3 cells incubated for 48 hrs by sulforhodamine B assay; conditions: PC-3, 48 h; for CC50: read-out: LC50 (the source's name)
[17] = Growth inhibition of human colon cancer cells after 48 hrs by sulforhodamine B assay; conditions: Cancer cell lines; for CC50: read-out: LC50 (the source's name)
[18] = Growth inhibition of human HCT15 cells incubated for 48 hrs by sulforhodamine B assay; conditions: HCT-15, 48 h; for CC50: read-out: LC50 (the source's name)
[19] = Growth inhibition of human NCI-ADR-RES cells incubated for 48 hrs by sulforhodamine B assay; conditions: for CC50: read-out: LC50 (the source's name)
786-0 = experiment: Cytotoxicity against human 786-0 cells assessed as cell growth at 10 uM incubated for 48 hrs by sulforhodamine B assay; conditions: 786-0, 48 h, read-out: Activity
[20] = Cytotoxicity against human IGROV1 cells assessed as cell growth at 10 uM incubated for 48 hrs by sulforhodamine B assay; conditions: IGROV-1, 48 h, read-out: Activity
[21] = Growth inhibition of human HCC2998 cells incubated for 48 hrs by sulforhodamine B assay; conditions: HCC 2998, 48 h; for CC50: read-out: LC50 (the source's name)
NCI-H322M = experiment: Growth inhibition of human NCI-H322M cells incubated for 48 hrs by sulforhodamine B assay; conditions: for CC50: read-out: LC50 (the source's name)
CCRF-CEM = experiment: Cytotoxicity against human CCRF-CEM cells assessed as cell growth at 10 uM incubated for 48 hrs by sulforhodamine B assay; conditions: read-out: Activity
[22] = Cytotoxicity against human SF539 cells assessed as cell growth at 10 uM incubated for 48 hrs by sulforhodamine B assay; conditions: SF-539, 48 h, read-out: Activity
SK-MEL-5 = experiment: Cytotoxicity against human SK-MEL-5 cells assessed as cell growth at 10 uM incubated for 48 hrs by sulforhodamine B assay; conditions: SK-MEL-5, 48 h, read-out: Activity

What does the source list for Cc1cc(=O)oc2c(C)c(O)c(-c3ccnc(N)n3)cc12?
GI50 (NCI-H23): 46 µM; TGI (NCI-H23): > 100 µM; CC50 (NCI-H23): > 100 µM; GI50 [1]: 47.8 µM; TGI [1]: > 100 µM; CC50 [1]: > 100 µM; growth at 10 µM [2]: 61.9%; GI50 [3]: 12.3 µM; TGI [3]: > 100 µM; CC50 [3]: > 100 µM; GI50 [4]: 4.7 µM; TGI [4]: 59.9 µM; CC50 [4]: > 100 µM; GI50 [5]: 3.05 µM; TGI [5]: > 100 µM; CC50 [5]: > 100 µM; growth at 10 µM (MDA-MB-231): 69%; growth at 10 µM [6]: 27.2%; GI50 [7]: 8.33 µM; TGI [7]: > 100 µM; CC50 [7]: > 100 µM; growth at 10 µM (A549): 39.5%; GI50 [8]: 68.1 µM; TGI [8]: > 100 µM; CC50 [8]: > 100 µM; growth at 10 µM (MDA-MB-435): 55%; growth at 10 µM (Malme-3M): 66.9%; growth at 10 µM [9]: 40.4%; growth at 10 µM [10]: 51.5%; growth at 10 µM [11]: 50.4%; GI50 [12]: 3.6 µM; TGI [12]: > 100 µM; CC50 [12]: > 100 µM; growth at 10 µM [13]: 62.6%; growth at 10 µM [14]: 33.8%; GI50 (A498): 1.44 µM; TGI (A498): > 100 µM; CC50 (A498): > 100 µM; GI50 (NCI-H522): 20.7 µM; TGI (NCI-H522): > 100 µM; CC50 (NCI-H522): > 100 µM; GI50 (T47D): 5 µM; TGI (T47D): > 100 µM; CC50 (T47D): > 100 µM; GI50 (ACHN): 2.39 µM; TGI (ACHN): > 100 µM; CC50 (ACHN): > 100 µM; growth at 10 µM (MDA-MB-468): 40.4%; GI50 [15]: 10.9 µM; TGI [15]: > 100 µM; CC50 [15]: > 100 µM; GI50 [16]: > 100 µM; TGI [16]: > 100 µM; CC50 [16]: > 100 µM; GI50 [17]: 32.7 µM; TGI [17]: > 100 µM; CC50 [17]: > 100 µM; GI50 [18]: 8.45 µM; TGI [18]: > 100 µM; CC50 [18]: > 100 µM; GI50 [19]: 66.1 µM; TGI [19]: > 100 µM; CC50 [19]: > 100 µM; growth at 10 µM (786-0): 62.1%; growth at 10 µM [20]: 60.9%; GI50 [21]: > 100 µM; TGI [21]: > 100 µM; CC50 [21]: > 100 µM; GI50 (NCI-H322M): 59 µM; TGI (NCI-H322M): > 100 µM; CC50 (NCI-H322M): > 100 µM; growth at 10 µM (CCRF-CEM): -36.8%; growth at 10 µM [22]: 60.7%; growth at 10 µM (SK-MEL-5): 38.5%

Which results are given for Cc1cc(=O)oc2c(C)c(O)c(-c3cc4ccc(F)cc4[nH]3)cc12?
GI50 (NCI-H23): 2.07 µM; TGI (NCI-H23): 8.99 µM; CC50 (NCI-H23): 75.3 µM; GI50 [1]: 3.57 µM; TGI [1]: 13.6 µM; CC50 [1]: 65.9 µM; growth at 10 µM [2]: 59.9%; GI50 [3]: 3.42 µM; TGI [3]: 15 µM; CC50 [3]: 83.3 µM; GI50 [4]: 3.91 µM; TGI [4]: 14.7 µM; CC50 [4]: 42.3 µM; GI50 [5]: 2.62 µM; TGI [5]: 9.87 µM; CC50 [5]: 31.5 µM; growth at 10 µM (MDA-MB-231): 59.3%; growth at 10 µM [6]: 36.4%; GI50 [7]: 2.94 µM; TGI [7]: 14.1 µM; CC50 [7]: 59.4 µM; growth at 10 µM (A549): 39.3%; GI50 [8]: 2.64 µM; TGI [8]: 9.71 µM; CC50 [8]: 30.8 µM; growth at 10 µM (MDA-MB-435): 32.4%; growth at 10 µM (Malme-3M): 31.9%; growth at 10 µM [9]: 41.2%; growth at 10 µM [10]: 26%; growth at 10 µM [11]: 31.9%; GI50 [12]: 3.54 µM; TGI [12]: 15.2 µM; CC50 [12]: 52.2 µM; growth at 10 µM [13]: 48.7%; growth at 10 µM [14]: 68.8%; GI50 (A498): 1.93 µM; TGI (A498): 6.21 µM; CC50 (A498): 25.8 µM; GI50 (NCI-H522): 2.78 µM; TGI (NCI-H522): 9.09 µM; CC50 (NCI-H522): 48.9 µM; GI50 (T47D): 2.39 µM; TGI (T47D): 22.1 µM; CC50 (T47D): > 100 µM; GI50 (ACHN): 2.64 µM; TGI (ACHN): 10.6 µM; CC50 (ACHN): 74.7 µM; growth at 10 µM (MDA-MB-468): 16.7%; GI50 [15]: 2.98 µM; TGI [15]: 15.9 µM; CC50 [15]: 45.4 µM; GI50 [16]: 2.64 µM; TGI [16]: 10 µM; CC50 [16]: > 100 µM; GI50 [17]: 5.38 µM; TGI [17]: 16.2 µM; CC50 [17]: 48.1 µM; GI50 [18]: 3.09 µM; TGI [18]: 13.6 µM; CC50 [18]: 63.1 µM; GI50 [19]: 2.82 µM; TGI [19]: 12.7 µM; CC50 [19]: > 100 µM; growth at 10 µM (786-0): 42.2%; growth at 10 µM [20]: 33.2%; GI50 [21]: 3.49 µM; TGI [21]: 13.5 µM; CC50 [21]: 39.9 µM; GI50 (NCI-H322M): 3.23 µM; TGI (NCI-H322M): 13.1 µM; CC50 (NCI-H322M): 88.3 µM; growth at 10 µM (CCRF-CEM): 43.1%; growth at 10 µM [22]: 47.3%; growth at 10 µM (SK-MEL-5): 8.97%
